From patent publication US11690845B2, “Methods of administering elagolix” (priority 2020, dated 2023)
Like-named read-outs stand apart in the source and are kept apart here.

Columns and labels:
rabbits = experiment: Embryofetal development study in the rabbit; assay type: in vivo
Procedure: (§2) Embryofetal development studies were conducted in the rat and rabbit. Elagolix was administered by oral gavage to pregnant rats (25 animals/dose) at doses of 0, 300, 600 and 1200 mg/kg/day and to rabbits (20 animals/dose) at doses of 0, 100, 150, and 200 mg/kg/day, during the period of organogenesis (gestation day 6-17 in the rat and gestation day 7-20 in the rabbit).

pregnant rats = experiment: Embryofetal development study in the rat; assay type: in vivo
Procedure: as §2

CYP3A = experiment: Substrate of / metabolism by CYP3A; assay type: in vitro ADME
CYP2B6 = experiment: In vitro studies: CYP2B6 induction; assay type: in vitro ADME
P-gp = P-gp (Homo sapiens, UniProt P08183); experiment: Substrate of P-gp; assay type: in vitro ADME
CYP3A4 = experiment: In vitro studies: CYP3A4 (CYP3A) induction; assay type: in vitro ADME; settings: in vitro studies (CYP3A4; b159: CYP3A)
[1] = Pharmacogenomics: elagolix plasma concentrations by SLCO1B1 521T>C genotype; assay type: in vivo, human; settings: SLCO1B1 521 C/C genotype
Excerpt: Hepatic uptake of elagolix involves the OATP1B1 transporter protein. Higher plasma concentrations of elagolix have been observed in patients who have two reduced function alleles of the gene that encodes OATP1B1 (SLCO1B1 521T>C) (these patients are likely to have reduced hepatic uptake of elagolix; and thus, higher plasma elagolix concentrations). The frequency of this SLCO1B1 521 C/C genotype is generally less than […] in most racial/ethnic groups. Women with this genotype are expected to have approximately 2-fold higher elagolix mean concentrations compared to women with normal transporter function (i.e., SLCO1B1 521T/T genotype). Adverse effects of elagolix have not been fully evaluated in subjects who have two reduced function alleles of the gene that encodes OATP1B1 (SLCO1B1 521T>C). The above listed examples should not be deemed to limit the scope of the invention as claimed.

[2] = molecular target: T1, rat gonadotropin-releasing hormone (GnRH) receptor (Rattus norvegicus, UniProt P30969); experiment: Binding to rat versus human GnRH receptor; settings: rat vs human GnRH receptor
T1 sequence (P30969 1-327): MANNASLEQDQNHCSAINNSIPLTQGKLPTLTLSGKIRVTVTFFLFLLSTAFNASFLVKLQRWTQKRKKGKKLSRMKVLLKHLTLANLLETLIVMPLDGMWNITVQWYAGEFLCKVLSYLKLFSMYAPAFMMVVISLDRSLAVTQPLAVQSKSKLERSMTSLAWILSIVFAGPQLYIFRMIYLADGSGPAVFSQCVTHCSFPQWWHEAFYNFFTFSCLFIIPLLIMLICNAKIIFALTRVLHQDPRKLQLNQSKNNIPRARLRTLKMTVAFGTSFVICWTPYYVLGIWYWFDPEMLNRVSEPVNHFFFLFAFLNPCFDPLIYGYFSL

[3] = Drug interaction studies: pharmacokinetics of elagolix in the presence of co-administered drugs; assay type: in vivo, human; settings: for Ratio (90% CI) AUC of elagolix, co-administration vs elagolix alone / Ratio (90% CI) Cmax of elagolix, co-administration vs elagolix alone: elagolix 150 mg single dose
Procedure: Drug interaction studies were performed with elagolix and other drugs likely to be co-administered and with drugs commonly used as probes for pharmacokinetic interactions.

[4] = Pre- and postnatal development study in rats; assay type: in vivo, rat; settings: female, rat, plasma, oral, rats, read-out: maternal plasma concentration
Procedure: (§1) In a pre- and postnatal development study in rats, elagolix was given in the diet to achieve doses of 0, 100 and 300 mg/kg/day (25 per dose group) from gestation day 6 to lactation day 20. […] Pup survival was decreased from birth to postnatal day 4. […] Smaller body size and effect on startle response were associated with lower pup weights at 300 mg/kg/day. Post-weaning growth, development and behavioral endpoints were unaffected.

rats = experiment: Pre- and postnatal development study in rats; assay type: in vivo, rat; settings: for maternal plasma concentration relative to maximal elagolix concentration (Cmax) in humans at the MRHD: rats
Procedure: as §1

OATP1B1 = molecular target: T2, OATP1B1 (Homo sapiens, UniProt Q9Y6L6); experiment: Substrate of OATP1B1; assay type: in vitro ADME
T2 sequence (Q9Y6L6 1-691): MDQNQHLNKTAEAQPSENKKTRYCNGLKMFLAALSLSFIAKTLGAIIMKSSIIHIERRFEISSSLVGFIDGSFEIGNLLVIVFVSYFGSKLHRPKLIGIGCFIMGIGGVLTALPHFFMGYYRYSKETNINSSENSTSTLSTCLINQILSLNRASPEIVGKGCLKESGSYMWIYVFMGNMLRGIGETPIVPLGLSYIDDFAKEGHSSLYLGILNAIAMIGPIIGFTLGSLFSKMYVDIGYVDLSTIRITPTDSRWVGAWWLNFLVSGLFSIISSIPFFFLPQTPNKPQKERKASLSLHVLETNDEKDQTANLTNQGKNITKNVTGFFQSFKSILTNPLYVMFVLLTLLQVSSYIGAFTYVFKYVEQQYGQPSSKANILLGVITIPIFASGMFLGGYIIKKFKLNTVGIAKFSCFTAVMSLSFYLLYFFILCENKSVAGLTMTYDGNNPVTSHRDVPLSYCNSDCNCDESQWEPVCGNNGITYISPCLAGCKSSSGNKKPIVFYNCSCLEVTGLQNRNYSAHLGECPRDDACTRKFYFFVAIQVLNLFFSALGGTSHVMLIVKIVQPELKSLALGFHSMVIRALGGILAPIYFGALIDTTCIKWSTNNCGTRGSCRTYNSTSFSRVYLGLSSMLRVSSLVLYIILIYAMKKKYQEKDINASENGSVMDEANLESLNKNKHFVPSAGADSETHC

P-glycoprotein (P-gp) = P-glycoprotein (P-gp) (Homo sapiens, UniProt P08183); experiment: Inhibition of efflux transporter P-gp; assay type: in vitro ADME
CYP2C19 = CYP2C19 (Homo sapiens, UniProt P33261); experiment: In vitro studies: CYP2C19 inhibition; assay type: in vitro ADME
[5] = rabbits, highest, maternally toxic dose
[6] = Ketoconazole 400 mg once daily, N 11
[7] = Rifampin 600 mg single dose, N 12
[8] = lactation day 21, 100 mg/kg/day
[9] = lactation day 21, 300 mg/kg/day

CYP2C19, sequence (P33261 whole entry): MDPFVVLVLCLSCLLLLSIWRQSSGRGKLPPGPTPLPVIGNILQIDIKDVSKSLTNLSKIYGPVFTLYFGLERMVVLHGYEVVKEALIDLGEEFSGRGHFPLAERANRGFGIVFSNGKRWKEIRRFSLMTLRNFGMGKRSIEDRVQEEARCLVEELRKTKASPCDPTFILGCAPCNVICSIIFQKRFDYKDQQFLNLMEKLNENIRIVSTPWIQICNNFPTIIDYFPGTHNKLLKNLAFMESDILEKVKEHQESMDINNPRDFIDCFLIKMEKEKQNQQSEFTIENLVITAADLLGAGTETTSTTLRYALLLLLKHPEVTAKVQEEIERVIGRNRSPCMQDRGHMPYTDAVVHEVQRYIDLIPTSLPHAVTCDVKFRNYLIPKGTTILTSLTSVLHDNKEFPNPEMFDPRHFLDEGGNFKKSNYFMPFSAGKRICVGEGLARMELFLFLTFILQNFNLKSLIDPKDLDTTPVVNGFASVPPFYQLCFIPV
P-glycoprotein (P-gp), sequence (P08183 whole entry): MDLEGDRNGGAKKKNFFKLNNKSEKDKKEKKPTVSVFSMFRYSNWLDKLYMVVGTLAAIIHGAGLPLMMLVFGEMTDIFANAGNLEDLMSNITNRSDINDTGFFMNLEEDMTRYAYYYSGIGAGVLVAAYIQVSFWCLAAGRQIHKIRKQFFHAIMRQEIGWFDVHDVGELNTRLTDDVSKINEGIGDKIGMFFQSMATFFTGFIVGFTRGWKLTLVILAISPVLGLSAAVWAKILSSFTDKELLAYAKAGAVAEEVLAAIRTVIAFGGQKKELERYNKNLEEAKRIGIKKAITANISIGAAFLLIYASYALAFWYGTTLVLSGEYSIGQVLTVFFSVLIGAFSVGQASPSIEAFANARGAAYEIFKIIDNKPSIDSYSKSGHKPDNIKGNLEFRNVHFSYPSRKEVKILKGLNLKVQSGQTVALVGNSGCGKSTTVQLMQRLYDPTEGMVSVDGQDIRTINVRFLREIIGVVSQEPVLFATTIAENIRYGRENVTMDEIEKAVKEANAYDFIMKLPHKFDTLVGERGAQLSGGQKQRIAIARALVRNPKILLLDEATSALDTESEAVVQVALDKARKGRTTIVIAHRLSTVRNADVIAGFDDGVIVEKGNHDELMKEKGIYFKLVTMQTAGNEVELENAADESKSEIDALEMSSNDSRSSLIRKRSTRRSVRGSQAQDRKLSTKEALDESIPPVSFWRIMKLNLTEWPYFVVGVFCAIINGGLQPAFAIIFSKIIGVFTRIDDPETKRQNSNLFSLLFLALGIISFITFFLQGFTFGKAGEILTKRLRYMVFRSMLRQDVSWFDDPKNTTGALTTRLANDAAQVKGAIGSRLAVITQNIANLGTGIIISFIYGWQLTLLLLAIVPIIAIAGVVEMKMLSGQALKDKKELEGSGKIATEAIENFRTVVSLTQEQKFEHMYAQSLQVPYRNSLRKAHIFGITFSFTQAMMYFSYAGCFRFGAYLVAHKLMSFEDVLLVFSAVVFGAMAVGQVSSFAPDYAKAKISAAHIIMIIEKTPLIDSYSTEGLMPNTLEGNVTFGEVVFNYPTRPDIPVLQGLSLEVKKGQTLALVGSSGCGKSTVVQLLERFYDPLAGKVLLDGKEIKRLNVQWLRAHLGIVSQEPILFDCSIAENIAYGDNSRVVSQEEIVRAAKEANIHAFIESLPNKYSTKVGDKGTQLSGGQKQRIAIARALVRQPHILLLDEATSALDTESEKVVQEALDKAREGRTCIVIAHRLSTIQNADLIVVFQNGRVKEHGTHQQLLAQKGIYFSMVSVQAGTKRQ
P-gp, sequence (P08183 whole entry): as above

SMILES: COc1cccc(-c2c(C)n(Cc3c(F)cccc3C(F)(F)F)c(=O)n(C[C@H](NCCCC(=O)O)c3ccccc3)c2=O)c1F [elagolix, 4-((R)-2-[5-(2-fluoro-3-methoxy-phenyl)-3-(2-fluoro-6-trifluoromethyl-benzyl)-4-methyl-2,6-dioxo-3,6-dihydro-2H-pyrimidin-1-yl]-1-phenyl-ethylamino)-butyric acid]
- fetal malformations (rabbits; rabbit, any dose level tested): No fetal malformations
- dose with spontaneous abortion and total litter loss, multiple of MRHD (rabbits; rabbits, oral, organogenesis, highest, maternally toxic dose, based on AUC): 7 times the MRHD
- total litter loss (rabbits; rabbits, 150 mg/kg/day, non-maternally toxic): single total litter loss
- spontaneous abortions (rabbits; [5]): three spontaneous abortions
- total litter loss (rabbits; [5]): single total litter loss
- dose with total litter loss, multiple of MRHD (rabbits; rabbits, lower non-maternally toxic dose of 150 mg/kg/day): 4 times the MRHD
- dose with (increased) postimplantation loss, multiple of MRHD (pregnant rats; pregnant rats, oral, organogenesis, mid dose group, based on AUC): 12 times the MRHD
- fetal malformations (pregnant rats; rat, any dose level tested): No fetal malformations
- maternal deaths (pregnant rats; rats, 300, 600 and 1200 mg/kg/day): six deaths
- substrate of CYP3A (CYP3A): substrate
- CYP2B6 induction (CYP2B6): weak to moderate inducer
- substrate of P-gp (P-gp): substrate
- CYP3A4 / CYP3A induction (CYP3A4): weak to moderate inducer
- plasma concentrations in patients with two reduced function alleles of SLCO1B1 521T>C [1]: Higher
- elagolix mean concentrations vs women with normal transporter function (SLCO1B1 521T/T) ([1]; expected): approximately 2 fold higher
- binding to rat GnRH receptor relative to human GnRH receptor [2]: ~1000 fold less
- Ratio (90% CI) AUC of elagolix, co-administration vs elagolix alone [3, 6]: 2.20
- Ratio (90% CI) Cmax of elagolix, co-administration vs elagolix alone [3, 6]: 1.77
- Ratio (90% CI) AUC of elagolix, co-administration vs elagolix alone ([3]; Rifampin 600 mg once daily): 1.65
- Ratio (90% CI) Cmax of elagolix, co-administration vs elagolix alone ([3]; Rifampin 600 mg once daily): 2.00
- Ratio (90% CI) AUC of elagolix, co-administration vs elagolix alone [3, 7]: 5.58
- Ratio (90% CI) Cmax of elagolix, co-administration vs elagolix alone [3, 7]: 4.37
- plasma concentrations of elagolix with concomitant rifampin ([3]; concomitant use of rifampin): increased
- changes in elagolix exposures ([3]; elagolix 300 mg twice daily with rosuvastatin (20 mg once daily), sertraline (25 mg once daily) or fluconazole (200 mg single dose)): No clinically significant changes
- concentration at 21 lactation day [4, 8]: 47 ng/mL
- concentration at 21 lactation day [4, 9]: 125 ng/mL
- pup birth weights (rats; 300 mg/kg/day): lower birth weights
- dams failing to deliver (rats; highest dose (300 mg/kg/day)): one failed to deliver
- dams with total litter loss (rats; highest dose (300 mg/kg/day)): two dams
- pup survival (rats; highest dose, birth to postnatal day 4): decreased
- post-weaning growth, development and behavioral endpoints (rats; rat, in vivo): unaffected
- maternal plasma concentration relative to maximal elagolix concentration (Cmax) in humans at the MRHD (rats; [8]): 0.04 fold
- maternal plasma concentration relative to maximal elagolix concentration (Cmax) in humans at the MRHD (rats; [9]): 0.1 fold
- substrate of OATP1B1 (OATP1B1): substrate
- P-gp inhibition (P-glycoprotein (P-gp)): inhibitor
- CYP2C19 inhibition (CYP2C19): weak inhibitor
